Source: the supplement of paper PMC10307832

What was measured:
Assay in all cases: relative viability (nuclei count vs DMSO), 5 days (fraction); higher = more cells survive
[1] = compound: C1CC(C1)(C(=O)O)C(=O)O.[NH2-].[NH2-].[Pt+2] [Carboplatin]
In short: (§1)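 Vehicle-anchored 1536-well plates of lung cancer cell lines, held overnight at 37 °C, were pinned with five library-drug doses (not always all listed) spaced by √10. No medium change followed over the next 5 days, after which the cells were fixed, permeabilised and Hoechst-stained together and imaged at 4×. Nuclei were counted with MetaXpress, and viability is treated-well nuclei over vehicle-well nuclei, taken as a median across plates. Plates passed with control CV below 25% and at least one doubling.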

[2] = compound: CC[C@H](C)N1C=C(C2=C(C=C(C=C21)C3=CN=C(C=C3)N4CCNCC4)C(=O)NCC5=C(C=C(NC5=O)C)C)C [GSK126]
In short: as §1

[3] = compound: NS(=O)(=O)OC[C@@H]1C[C@@H](n2ccc3c(N[C@H]4CCc5ccccc54)ncnc32)C[C@@H]1O [MLN4924]
In short: as §1

[4] = compound: CC[C@H](C)N1C=C(C2=C(C=C(C=C21)C3=CN=C(C=C3)N4CCNCC4)C(=O)NCC5=C(C=C(NC5=O)C)C)C [GSK126] + Cc1nc(Nc2ncc(C(=O)Nc3c(C)cccc3Cl)s2)cc(N2CCN(CCO)CC2)n1 [Dasatinib] (partner 0.075 µM)
In short: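 Lung cancer cell lines in 1536-well plates were dosed by pin tool the day after seeding, either with one drug alone or with a fixed anchor-drug dose plus five library-drug doses (not always all listed) in √10 steps. After 5 days, cells were fixed and their nuclei stained in one step (final 0.05% Triton X-100, 1% formaldehyde, 1 ug/ml Hoechst), then counted on 4× images. Relative viability is the nuclei count in treated wells divided by that in vehicle wells. Values are medians of duplicate plates.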

Cell Line	relative viability ([1]; 0.08 µM)	relative viability ([1]; 0.253 µM)	relative viability ([1]; 0.8 µM)	relative viability ([1]; 2.53 µM)	relative viability ([1]; 8 µM)	relative viability ([2]; 0.08 µM)	relative viability ([2]; 0.253 µM)	relative viability ([2]; 0.8 µM)	relative viability ([2]; 2.53 µM)	relative viability ([2]; 8 µM)	relative viability ([3]; 0.04 µM)	relative viability ([3]; 0.1265 µM)	relative viability ([3]; 0.4 µM)	relative viability ([3]; 1.265 µM)	relative viability ([3]; 4 µM)	relative viability ([4]; first compound 0.08 µM)	relative viability ([4]; first compound 0.253 µM)	relative viability ([4]; first compound 0.8 µM)	relative viability ([4]; first compound 2.53 µM)	relative viability ([4]; first compound 8 µM)
NCI-H1395	1.16	0.885	0.833	0.749	0.766	1.03	0.926	0.893	1	0.957	0.868	0.951	0.618	0.354	0.381	0.464	0.439	0.406	0.399	0.427
NCI-H1437	1.03	0.965	0.966	0.905	0.868	1.05	1	0.945	0.92	0.919	0.941	0.988	0.841	0.423	0.281	0.392	0.368	0.416	0.441	0.349
NCI-H1563	0.963	1	1.03	0.946	1.02	1.04	0.999	1.06	1.04	0.965	1.42	1.21	0.818	0.494	0.511	0.438	0.455	0.461	0.459	0.441
NCI-H1623	1.03	0.963	0.872	0.875	0.695	0.974	1.04	0.959	0.954	1	0.744	0.53	0.443	0.298	0.246	0.529	0.567	0.602	0.482	0.5
NCI-H1650	0.995	0.888	0.933	0.812	0.638	1.05	0.948	0.954	1.02	1.03	0.708	0.578	0.286	0.171	0.201	0.349	0.333	0.284	0.281	0.338
NCI-H1651	0.996	1.01	0.948	0.861	0.679	1.09	0.957	0.956	1.05	1.09	1.02	1.04	0.967	0.503	0.202	0.534	0.427	0.363	0.443	0.45
NCI-H1666	1.03	1.02	0.987	0.913	0.797	0.966	1.03	0.984	0.95	1.07	1.02	0.915	0.632	0.35	0.38	0.675	0.586	0.579	0.616	0.656
NCI-H1734	1.07	1.04	0.991	1.03	0.875	1.13	0.981	0.986	1.03	1.01	1.02	0.963	0.306	0.145	0.155	0.573	0.505	0.463	0.467	0.449
NCI-H1755	1.05	1.03	1.04	1	0.966	1.04	1.06	0.978	1	1.06	0.954	0.905	0.547	0.255	0.198	0.502	0.49	0.405	0.448	0.428
NCI-H1792	1.07	0.918	0.83	0.773	0.723	0.998	0.837	1.04	0.934	0.879	0.929	0.954	1.1	0.412	0.4	0.829	0.607	0.743	0.608	0.72
NCI-H1793	0.968	0.98	0.908	0.906	1.1	1.07	0.948	0.826	1.11	0.855	0.91	0.982	1.01	0.473	0.361	0.441	0.373	0.356	0.431	0.405
NCI-H1915	1.03	1.02	0.971	0.932	0.737	1.05	0.978	1.01	0.973	0.994	0.958	0.911	0.692	0.219	0.224	0.3	0.3	0.34	0.347	0.328
NCI-H1944	0.887	0.967	0.922	0.981	0.644	1.1	0.902	1	0.998	1.13	0.975	0.788	0.583	0.176	0.176	0.236	0.213	0.229	0.24	0.297
